From patent publication US8048455B2, “Treatment of cancer and inflammatory disorder” (Academia Sinica, priority 2006, dated 2011)

How the values were obtained:
[1] = test system: NF-κB•DNA complex; experiment: Electrophoretic mobility shift assay of NF-κB binding to consensus DNA in LPS-stimulated RAW 264.7 cells; assay type: cell-based, murine; details: for NF-κB•DNA complex, of LPS alone: 90 minutes; for NF-κB•DNA complex level: 75 μg/mL
Experimental: EMSA was performed with the […]™ Chemiluminescent EMSA kit (Pierce Biotechnology, Rockford, Ill.). […] The DNA-protein complexes were subjected to 5-10% gradient PAGE. Competition assay with unlabeled oligonucleotide (cold DNA) was performed in parallel. […]

[2] = test system: LPS binding to LPS receptors on macrophages; experiment: Binding of FITC-labeled LPS to macrophages; assay type: cell-based, murine
[3] = test system: PGE2 production; experiment: LPS-induced PGE2 production in RAW 264.7 macrophages; assay type: cell-based, murine; details: doses between 25 and 75 μg/mL
Experimental: PGE2 production was determined according to the procedure described in Chiang et al. Br J Pharmacol 2005; 146:352-63. Macrophages were pretreated with aspirin (500 μM, 3 h) to inactivate endogenous cyclooxygenase-1, washed, and incubated with test compounds for 1 hour before further incubation for 16 hours with or without LPS. PGE2 in the culture media was determined with ACE™ Competitive Enzyme Immunoassay (Cayman Chemical).
The above-mentioned test compounds were incubated with COX-2 enzyme and substrates before measuring the COX-2 activity. Celecoxib, a potent nonsteroidal anti-inflammatory drug (NSAID), was used as a positive control. […] The IC50 of the nonsteroidal anti-inflammatory drug celecoxib, used as a positive control, was 0.47 μg/mL. RAW 264.7 cells (1×10^4 cells/well) were treated with dLGG and then stimulated with LPS, and PGE2 in the culture medium was then measured.

[4] = test system: NO; experiment: Plasma nitrite concentration in SNP-treated mice; assay type: in vivo, Female ICR mice; details: topical pretreatment 30 min before SNP; dLGG 10 mg/site, PTIO 3.5 mg/site
Experimental: Female ICR mice were topically treated on their shaven back area of a 2-cm diameter (3.14 cm^2/site/mouse) with vehicle control (acetone), SNP (positive control), or with dLGG or PTIO for 30 minutes before SNP application. Mouse plasma samples were subjected to determine the nitrite content followed a published method (Moshage et al. Clin Chem 1995; 41:892-6).
To examine the capability of dLGG to scavenge NO in vivo, the plasma NO concentration in SNP-insulted mice was determined with or without pretreatment with dLGG. Female ICR mice were transdermally treated with 200 μL acetone (vehicle control) or SNP (5.96 mg/site) only for 15 minutes, or pre-treated with dLGG (10 mg/site) or PTIO (3.5 mg/site) for 30 minutes before SNP treatment.

[5] = test system: IKKα/β; experiment: IKKα/β phosphorylation, IRAK-1 degradation and IKK kinase assay in LPS-stimulated RAW 264.7 cells; assay type: cell-based, murine
Experimental: Whole cell lysates (300 μg) of macrophages were pre-cleaned by incubation with 0.25 μg IgG and 20 μL protein A/G plus agarose beads (Santa Cruz) for 30 minutes at 4° C. Supernatants were then collected and incubated with IKKα/β antibody and protein A/G plus agarose beads at 4° C. overnight. Precipitates were washed with an IP buffer and a kinase buffer. IKK kinase activity was assayed by adding 1 μg of GST-IκBα fusion protein (Santa Cruz) and 200 μM ATP in 20 μL kinase buffer for 30 minutes at 30° C. and then stopped by mixing with the Laemmli's loading buffer and heated at 100° C. for 5 minutes. Samples were then subjected to immunoblotting.
Assays were carried out in RAW 264.7 cells to examine the effects of dLGG on levels of IKKα/β and phospho-IKKα/β, the upstream kinase of IκBα in the NF-κB signaling pathway, and the upstream kinase, IRAK-1, for activating IKK complex. Cells were pretreated with various concentrations of dLGG for 1 hours, followed by LPS stimulation (1 μg/mL for 30 min). Specific IKKα/β and the phosphorylated forms of IKKα/β or GST-IκBα were detected by immunoblotting. IKKα/β immunoprecipitates were prepared from total cell lysate using anti-IKKα/β antibody and subsequently subjected to IKK kinase assay using GST-IκBα as substrate. […] (nuclear protein) and α-tubulin (cytosolic protein) were used as loading controls.
IKK enzymatic activity was also determined to confirm whether it was correlated to the inhibition of IκBα phosphorylation by dLGG. Immunoprecipitated IKK proteins obtained from control cells (±LPS/−dLGG) or cells treated with LPS+dLGG were assayed for phosphorylation of GST-IκBα. The LPS-induced enzymatic phosphorylation of IκBα (p-IκBα) was decreased approximately 42% when treated with 75 μg/mL dLGG. The levels of immunoprecipitated IKK proteins were not affected by dLGG.

[6] = test system: iNOS protein; experiment: iNOS protein expression (immunoblotting) in LPS-stimulated RAW264.7 cells; assay type: cell-based, murine; details: LPS 1 μg/mL 18 h
Experimental: (§1) Total cellular proteins and the specific cytosolic and nuclear proteins were prepared using methods described in Chiang et al. Protein content was measured by the Bradford method (Bio-Rad). Protein was resolved by 5-20% gradient SDS-PAGE and subjected to immunoblotting using enhanced chemiluminescence reagents (ECL, Amersham). Monoclonal antibodies against PARP (Transduction Laboratories, Lexington, Ky.), GA3PDH (Biogenesis, Poole, UK), α-tubulin (Oncogene Science, Cambridge, UK), COX-2 (Cayman Chemical), phospho-(Ser32)-IκBα, phospho-IKKα(Ser180)/IKKβ(Ser181) (New England Biolabs, Beverly, Mass.), iNOS, IκBα, IKKα/β or NF-κB p65 (RelA) (Santa Cruz Biotechnology, Santa Cruz, Calif.) were used.
RAW264.7 cells were treated with the indicated concentrations of dLGG for 1 hour then LPS (1 μg/mL) was added for 18 hours. Total cellular protein (20 μg) was then subjected to immunoblotting. Quantification of iNOS mRNA and protein expression involved normalization to GA3PDH (internal control) by densitometry. […] Thus, the dLGG-induced inhibition of NO production in LPS-stimulated macrophages is also mediated through suppression of both transcription and translation of iNOS.

[7] = test system: IκBα; experiment: IκBα phosphorylation and degradation in LPS-stimulated RAW 264.7 cells (Western blot); assay type: cell-based, murine; details: dLGG 1 h, LPS 1 μg/mL 30 min
Experimental: as §1
Cells were treated with various concentrations of dLGG for 1 h followed by the addition of LPS (1 μg/mL) for 30 min. Western blots was then conducted using antibodies for IκBα or phospho-IκBα.

CC/C=C\C/C=C\C/C=C\CCCCCCCC(=O)OC[C@H](CO[C@@H]1O[C@H](CO)[C@H](O)[C@H](O)[C@H]1O)OC(=O)CCCCCCC/C=C\C/C=C\C/C=C\CC [dLGG, 1,2-di-O-α-linolenoyl-3-O-β-galactopyranosyl-sn-glycerol]
NF-κB•DNA complex, of LPS alone ([1]; 25 μg/mL): 77% | NF-κB•DNA complex, of LPS alone ([1]; 50 μg/mL): 23% | NF-κB•DNA complex level ([1]; LPS 60 min): 0.43 times that of LPS alone (1.0) | NF-κB•DNA complex level ([1]; LPS 90 min): 0.30 times that of LPS alone (1.0) | NF-κB•DNA complex level ([1]; LPS 120 min): 0.16 times that of LPS alone (1.0) | NF-κB•DNA complex level ([1]; LPS 180 min): 0.01 times that of LPS alone (1.0) | Inhibition of NF-κB•DNA complex formation (structure-activity study) ([1]; 100 μM, LPS 1 μg/mL, 90 min): almost completely inhibited | Binding of FITC-labeled LPS to the test macrophages [2]: dose-dependently suppress | Reduction of LPS-induced PGE2 levels [3]: 37-58% | SNP-induced increase of nitrite plasma concentration [4]: suppressed | Decrease of LPS-induced enzymatic phosphorylation of IκBα (IKK kinase assay, GST-IκBα) ([5]; 75 μg/mL): approximately 42% | IRAK-1 degradation in LPS-stimulated macrophages ([5]; LPS-stimulated): inhibited | IKKα/β levels ([5]; dLGG 1 h, LPS 1 μg/mL 30 min): little affected | LPS-induced phosphorylation of IKKα/β ([5]; dLGG 1 h, LPS 1 μg/mL 30 min): inhibited | iNOS protein level [6]: Little iNOS protein was detected | IκBα degradation [7]: prevented | LPS-induced phosphorylation of IκBα [7]: inhibited
